Our source for the EC25 values is ChEMBL document CHEMBL1159190, “Determination of the active conformation of 6-amino--[(4-diphenylmethyl-1-piperazinyl)methyl-9H-purine]-9-ethanol: a positive inotropic agent” (1993).

For assay [1], the species on record is Rattus norvegicus. The assay is described as follows: Contractile force determined in rat atria. The class given is functional.
Assay [2] is filed under the species Rattus norvegicus. The assay is described as follows: Functional refractory period (FRP) determined in rat atria.
Setting [3] is: Rattus norvegicus, read-out: EC25.

Structures are written as SMILES.

Consider `Nc1ncnc2c1ncn2CC(O)CN1CCN(C(c2ccccc2)c2ccccc2)CC1` (configuration not stated), for which the EC25 (as a rule, the point of the concentration-response curve where the effect stands at 25%) in the assay listed under Rattus norvegicus [1] (setting [3]) was 0.5 µM; in the assay filed under Rattus norvegicus [2] (setting [3]), 0.2 µM.

For the molecule `Nc1ncnc2c1ncn2C[C@@]1(O)CC[C@H]2CN(C(c3ccccc3)c3ccccc3)CCN2C1`, the EC25 in the assay filed under Rattus norvegicus [1] (setting [3]) and in the assay filed under Rattus norvegicus [2] (setting [3]) was 15 µM each time.

Take `Nc1ncnc2c1ncn2C1CCCC(N2CCN(C(c3ccccc3)c3ccccc3)CC2)C1O` (cis isomer): the EC25 in the assay filed under Rattus norvegicus [1] is 20 µM; in the assay listed under Rattus norvegicus [2] it was 17 µM.

As for `Nc1ncnc2c1ncn2C1CCCC(N2CCN(C(c3ccccc3)c3ccccc3)CC2)C1O` (stereo in doubt), the EC25 was determined as 1.5 µM in the assay listed under Rattus norvegicus [1] and 0.9 µM in the assay listed under Rattus norvegicus [2].

On to `Nc1ncnc2c1ncn2C1CCCC(N2CCN(C(c3ccccc3)c3ccccc3)CC2)C1O` (trans isomer), for which the results for the EC25 in the assay listed under Rattus norvegicus [1] and in the assay filed under Rattus norvegicus [2] were 1.2 µM and 9 µM, respectively.

On to `Nc1ncnc2c1ncn2C[C@]1(O)CC[C@H]2CN(C(c3ccccc3)c3ccccc3)CCN2C1`, for which the EC25 amounted to 6.5 µM in the assay listed under Rattus norvegicus [1] (setting [3]) and 1.8 µM in the assay filed under Rattus norvegicus [2] (setting [3]).
